{"source": "patent US20250127937A1", "about": "“FAP INHIBITOR” (UNIVERSITÄT HEIDELBERG, priority 2018, published 2025)", "key": {"human FAP-α": {"biological_target": "human FAP-α (Homo sapiens (Human), UniProt Q12884)", "sequence (Q12884 whole entry)": "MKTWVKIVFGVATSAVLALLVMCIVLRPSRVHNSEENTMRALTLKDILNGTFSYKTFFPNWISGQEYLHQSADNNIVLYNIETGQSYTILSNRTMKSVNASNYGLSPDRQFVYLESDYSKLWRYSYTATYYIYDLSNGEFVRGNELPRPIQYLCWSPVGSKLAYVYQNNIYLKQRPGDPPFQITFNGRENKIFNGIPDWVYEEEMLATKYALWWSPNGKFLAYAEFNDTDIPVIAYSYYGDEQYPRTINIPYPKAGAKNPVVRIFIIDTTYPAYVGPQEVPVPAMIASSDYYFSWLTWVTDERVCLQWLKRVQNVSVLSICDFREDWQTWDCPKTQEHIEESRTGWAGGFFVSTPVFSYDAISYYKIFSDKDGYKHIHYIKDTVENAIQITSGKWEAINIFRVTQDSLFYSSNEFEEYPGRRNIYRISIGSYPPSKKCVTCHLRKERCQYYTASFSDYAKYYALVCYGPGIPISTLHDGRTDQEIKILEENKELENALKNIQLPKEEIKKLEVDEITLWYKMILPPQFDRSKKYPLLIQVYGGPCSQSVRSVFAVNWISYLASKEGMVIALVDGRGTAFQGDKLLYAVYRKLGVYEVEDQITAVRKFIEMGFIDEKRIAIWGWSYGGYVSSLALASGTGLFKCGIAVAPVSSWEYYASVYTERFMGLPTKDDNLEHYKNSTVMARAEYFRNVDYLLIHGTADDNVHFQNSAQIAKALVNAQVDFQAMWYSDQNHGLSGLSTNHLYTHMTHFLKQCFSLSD", "experiment": "Competitive binding of radiolabeled compound to HT-1080-FAP cells against unlabeled compound", "details": "HT-1080-FAP cells; for pIC50: Lu-177-labeled compound, unlabeled compound as competitor, read-out: IC50", "method": "Competition experiments were performed by simultaneous exposure to unlabeled (10^−5 M to 10^−9M) and radiolabeled compound for 60 min. […] For internalization experiments, surface bound activity was removed by incubating the cells with 1 M glycine-HCl buffer for 10 min. The radioactivity was measured using a γ-counter, normalized to 1 mio cells and calculated as percentage of applied dose (% ID).\nThe medium was replaced by 1 mL fresh medium without fetal calf serum. […] Competition experiments were performed by simultaneous exposure to unlabeled (10^−5 M to 10^−9 M) and radiolabeled compound for 60 min. […] In all experiments, the cells were washed with 1 mL phosphate-buffered saline pH 7.4 for 2 times and subsequently lysed with 1.4 ml lysis buffer (0.3 M NaOH, 0.2% SDS). Radioactivity was determined in a γ-counter (Cobra II, Packard), normalized to 1 mio cells and calculated as percentage of the applied dose (% ID). Each experiment was performed 3 times, and 3 repetitions per independent experiment were acquired."}, "[1]": {"system": "HT-1080-FAP tumor xenografts", "experiment": "Organ distribution ex vivo in HT-1080-FAP tumor bearing nude mice", "set-up": "species or system mouse", "details": "for Tumor uptake 1 h / Tumor uptake 4 h / Tumor uptake 24 h: HT-1080-FAP tumor bearing nude mice, mean ± SD, n = 3", "method": "For in vivo experiments, 8 week old BALB/c nu/nu mice (Charles River) were subcutaneously inoculated into the right trunk with 5×10^6 with HT-1080-FAP, Capan-2 or SK-LMS-1 cells, respectively. When the size of the tumor reached approximately 1 cm^3, the radiolabeled compound was injected via the tail vein (˜10 MBq for small-animal PET imaging; ˜1 MBq for organ distribution). PET imaging was performed up to 140 min after intravenous injection of 1 MBq of Ga-68 labeled compound per mouse using the Inveon PET small-animal PET scanner (Siemens). Images were reconstructed iteratively using the 3D-OSEM+MAP method and were converted to standardized uptake value (SUV) images. Quantification was done using a ROI technique and expressed as SUV mean. For organ distribution of Lu-177 labeled compound (approx. […] per mouse), the animals (n=3 for each time point) were sacrificed after indicated time points (from 30 min to 24 h). The distributed radioactivity was measured in all dissected organs and in blood using a γ-counter (Cobra Autogamma, Packard). The values are expressed as percentage of injected dose per gram of tissue (% ID/g)."}, "[2]": {"experiment": "Blood pool clearance from SUVmean of the heart", "type": "in vivo", "details": "for Plateau value (SUVmean): hypothetical plateau, two phase exponential decay of heart SUVmean; for Blood pool-clearence (T1/2 [min]): rate determining half-life, two phase exponential decay of heart SUVmean 0.375-60 min", "source_text": "The calculated plateau values, which were higher for Ga-68 labeled FAPI-13, -21, -36 and AlF-18 labeled FAPI-74 theoretically correspond to a higher fraction of compound which is not cleared due to unspecific binding or by remaining in circulating (Table 12)."}}, "note": "pIC50: −log10 of the molar value.", "data": [{"smiles": "N#C[C@@H]1CC(F)(F)CN1C(=O)CNC(=O)c1ccnc2ccc(OCCCN3CCN(CCN4CCN(CC(=O)O)CCN(CC(=O)O)CCN(CC(=O)O)CC4)CC3)cc12", "note": "[FAPI-47]", "values": [{"measurement": "pIC50", "setting": "human FAP-α", "result": 7.38}]}, {"smiles": "N#C[C@@H]1CC(F)(F)CN1C(=O)CNC(=O)c1ccnc2ccc(OCCOCCOCCN3CCN(C(=O)CN4CCN(CC(=O)O)CCN(CC(=O)O)CCN(CC(=O)O)CC4)CC3)cc12", "note": "[FAPI-15]", "values": [{"measurement": "Tumor uptake 1 h", "setting": "[1]", "result": "3.4 ± 1.13", "unit": "% ID/g"}, {"measurement": "Tumor uptake 4 h", "setting": "[1]", "result": "4.6 ± 0.32", "unit": "% ID/g"}, {"measurement": "Tumor uptake 24 h", "setting": "[1]", "result": "1.1 ± 0.25", "unit": "% ID/g"}, {"measurement": "pIC50", "setting": "human FAP-α", "result": 8.04}]}, {"smiles": "N#C[C@@H]1CC(F)(F)CN1C(=O)CNC(=O)c1ccnc2ccc(NCCCN3CCN(C(=O)CN4CCN(CC(=O)O)CCN(CC(=O)O)CCN(CC(=O)O)CC4)CC3)cc12", "note": "[FAPI-41]", "values": [{"measurement": "pIC50", "setting": "human FAP-α", "result": 8.08}]}, {"smiles": "N#C[C@@H]1CC(F)(F)CN1C(=O)CNC(=O)c1ccnc2ccc(OCCCCN3CCN(C(=O)CN4CCN(CC(=O)O)CCN(CC(=O)O)CCN(CC(=O)O)CC4)CC3)cc12", "note": "[FAPI-05]", "values": [{"measurement": "Tumor uptake 1 h", "setting": "[1]", "result": "6.0 ± 0.90", "unit": "% ID/g"}, {"measurement": "Tumor uptake 4 h", "setting": "[1]", "result": "5.8 ± 0.60", "unit": "% ID/g"}, {"measurement": "Tumor uptake 24 h", "setting": "[1]", "result": "2.8 ± 0.40", "unit": "% ID/g"}, {"measurement": "pIC50", "setting": "human FAP-α", "result": 7.76}]}, {"smiles": "N#C[C@@H]1CC(F)(F)CN1C(=O)CNC(=O)c1ccnc2ccc(SCCCN3CCN(C(=O)CN4CCN(CC(=O)O)CCN(CC(=O)O)CCN(CC(=O)O)CC4)CC3)cc12", "note": "[FAPI-40]", "values": [{"measurement": "pIC50", "setting": "human FAP-α", "result": 7.90}]}, {"smiles": "CN(CCCN1CCN(C(=O)CN2CCN(CC(=O)O)CCN(CC(=O)O)CC2)CC1)c1ccc2nccc(C(=O)NCC(=O)N3CC(F)(F)C[C@H]3C#N)c2c1", "note": "[FAPI-52]", "values": [{"measurement": "IC50-values", "setting": "human FAP-α; Cu-64 labeled", "result": "lower nanomolar range"}]}, {"smiles": "CN(CCCN1CCN(C(=O)CN2CCN(CC(=O)O)CCN(CC(=O)O)CCN(CC(=O)O)CC2)CC1)c1ccc2nccc(C(=O)NCC(=O)N3CC(F)(F)C[C@H]3C#N)c2c1", "note": "[FAPI-46]", "values": [{"measurement": "Plateau value (SUVmean)", "setting": "[2]", "result": 0.19}, {"measurement": "Blood pool-clearence (T1/2 [min])", "setting": "[2]", "result": 5.3, "unit": "min"}, {"measurement": "tumor-blood-ratios", "setting": "[1]; Lu labeled, 1, 4 and 24 h, compared with FAPI-04", "result": "significantly higher ratios than FAPI-04"}, {"measurement": "pIC50", "setting": "human FAP-α", "result": 7.87}]}, {"smiles": "N#C[C@@H]1CC(F)(F)CN1C(=O)CNC(=O)c1ccnc2ccc(OCCCN3CCN(CCCN4CCN(CC(=O)O)CCN(CC(=O)O)CCN(CC(=O)O)CC4)CC3)cc12", "note": "[FAPI-48]", "values": [{"measurement": "pIC50", "setting": "human FAP-α", "result": 7.58}]}, {"smiles": "N#C[C@@H]1CC(F)(F)CN1C(=O)CNC(=O)c1ccnc2ccc(CCCCN3CCN(C(=O)CN4CCN(CC(=O)O)CCN(CC(=O)O)CCN(CC(=O)O)CC4)CC3)cc12", "note": "[FAPI-39]", "values": [{"measurement": "pIC50", "setting": "human FAP-α", "result": 7.95}]}, {"smiles": "N#C[C@@H]1CC(F)(F)CN1C(=O)CNC(=O)c1ccnc2ccc(OCCCN3C[C@@H]4C[C@H]3CN4C(=O)CN3CCN(CC(=O)O)CCN(CC(=O)O)CCN(CC(=O)O)CC3)cc12", "note": "[FAPI-20]", "values": [{"measurement": "pIC50", "setting": "human FAP-α", "result": 8.14}]}, {"smiles": "N#C[C@@H]1CC(F)(F)CN1C(=O)CNC(=O)c1ccnc2ccc(OCCCC3CCN(C(=O)CN4CCN(CC(=O)O)CCN(CC(=O)O)CCN(CC(=O)O)CC4)CC3)cc12", "note": "[FAPI-13]", "values": [{"measurement": "Plateau value (SUVmean)", "setting": "[2]", "result": 0.27}, {"measurement": "Blood pool-clearence (T1/2 [min])", "setting": "[2]", "result": 5.5, "unit": "min"}, {"measurement": "Tumor uptake 1 h", "setting": "[1]", "result": "6.3 ± 0.57", "unit": "% ID/g"}, {"measurement": "Tumor uptake 4 h", "setting": "[1]", "result": "8.7 ± 0.77", "unit": "% ID/g"}, {"measurement": "Tumor uptake 24 h", "setting": "[1]", "result": "4.8 ± 1.71", "unit": "% ID/g"}, {"measurement": "pIC50", "setting": "human FAP-α", "result": 8.35}]}]}
